For this experiment, the system named is lipid peroxides (LPO) in rat brain homogenate. Description: Antioxidant activity (Stocks' method): inhibition of lipid peroxide formation in brain homogenate supernatant, TBA method. The experiment is classed as biochemical, Male Wistar rats. The following applies: for Inhibition (%): rat brain homogenate supernatant, 37° C., 60 minutes, MDA by TBA method. The method, then:
Several typical examples of the compound according to the invention were tested for antioxidant activity according essentially to the Stocks' method. Male Wistar rats (about 10 weeks old) were used. After perfusion for removing the blood from the brain, brain tissues were excised and homogenized in 4 weights of 0.1M phosphate-buffered saline (pH 7.4) with water cooling. The homogenate was centrifuged at 1,000×g for 10 minutes and the supernatant was used. The brain homogenate supernatant was diluted with 10 volumes of phosphate-buffered saline and 500 μl of the dilution was incubated at 37° C. for 60 minutes. The reaction was terminated by dipping the test tube into ice. After further addition 490 μl of 0.1M phosphate-buffered saline, assay was performed by the TBA method. The quantity of lipid peroxides (LPO) was expressed in terms of amount of malonedialdehyde (MDA) per milligram of protein. For protein assay, the Lowry method was used.

Structures can show the parent of a compound that is named as a salt.

Consider `CCCCCCCCCCCCCCCCCC(=O)OCC(COP(=O)(O)OC1=C(O)C(C(O)CO)OC1=O)OC(=O)CCCCCCCCCCCCCCCCC` (stereo not drawn) [(1), 1,2-O-Distearoyl-3-glycerophosphoryl-ascorbic acid], for which the “Inhibition (%)” value (dose 1 × 10^-3 M) is on record as 100%, the “Inhibition (%)” value (dose 1 × 10^-4 M) is listed as 100% and the “Inhibition (%)” value (dose 1 × 10^-5 M) amounted to 25.7%.

With `CCCCCCCCCCCCCCCC(=O)OCC(COP(=O)(O)OC1=C(O)C(C(O)CO)OC1=O)OC(=O)CCCCCCCCCCCCCCC` (stereo not drawn) [(2), 1,2-O-Dipalmitoyl-3-glycerophosphoryl-ascorbic acid], the “Inhibition (%)” value is, setting by setting: (dose 1 × 10^-3 M) 100%; (dose 1 × 10^-4 M) 100%; (dose 1 × 10^-5 M) 55.9%.

Regarding `CCCCCCCCCCCCCCCCOCC(COP(=O)(O)OC1=C(O)C(C(O)CO)OC1=O)OCCCCCCCCCCCCCCCC` (stereo not drawn) [(3), 1,2-O-Dihexadecyl-3-glycerophosphoryl-ascorbic acid], the “Inhibition (%)” value amounted to 100% (dose 1 × 10^-3 M), 100% (dose 1 × 10^-4 M) and 70.4% (dose 1 × 10^-5 M).

As to `CCCCCCCCCCCC(=O)OCC(COP(=O)(O)OC1=C(O)C(C(O)CO)OC1=O)OC(=O)CCCCCCCCCCC` (stereo not drawn) [(4), 1,2-O-Dilauroyl-3-glycerophosphoryl-ascorbic acid potassium salt], the “Inhibition (%)” value reads like this: (dose 1 × 10^-3 M) 97.8%; (dose 1 × 10^-4 M) 100%; (dose 1 × 10^-5 M) 8.6%.

Turning to `CCCCCCCCCCCC(=O)OCC(COC(=O)CCCCCCCCCCC)OP(=O)(O)OC1=C(O)C(C(O)CO)OC1=O` (stereo not drawn) [(5), 1,3-O-Dilauroyl-2-glycerophosphoryl-ascorbic acid potassium salt], the “Inhibition (%)” value is recorded as 100% (dose 1 × 10^-3 M), 82.2% (dose 1 × 10^-4 M) and 20.1% (dose 1 × 10^-5 M).

`O=C1O[C@H]([C@@H](O)CO)C(O)=C1O` [Ascorbic acid, reference compound]: where the note is “conclusion from the test results, compared to vitamin E”, the “antioxidant activity (in words)” value is listed as “rather promoted oxidation”. Also, the “Inhibition (%)” value reads like this: (dose 1 × 10^-3 M) -22.9%; (dose 1 × 10^-4 M) -28.6%.

Vitamin E [reference compound]: the “Inhibition (%)” value by setting is: (dose 1 × 10^-3 M) 94.3%; (dose 1 × 10^-4 M) 62.9%; (dose 1 × 10^-5 M) 28.6%.

The record behind these values is US5098898A, “Phospholipid derivatives” (Senju Pharmaceutical Co., Ltd., priority 1989, dated 1992).
